Patent US20080227134A9, “Glyoxylate assays and their use of inden tifying natural amidated compounds” (priority 2005, published 2008)

Key:
[1] = molecular target: T1, Glyoxal oxidase (Phanerodontia chrysosporium, UniProt Q01772); assay: Effect of PAM reductant on glyoxal oxidase activity and glyoxylate assays; type: biochemical; design: Dr. James Whittaker, OGI School of Science and Engineering (gift); conditions: reductant for PAM catalysis
T1 sequence (Q01772 23-559): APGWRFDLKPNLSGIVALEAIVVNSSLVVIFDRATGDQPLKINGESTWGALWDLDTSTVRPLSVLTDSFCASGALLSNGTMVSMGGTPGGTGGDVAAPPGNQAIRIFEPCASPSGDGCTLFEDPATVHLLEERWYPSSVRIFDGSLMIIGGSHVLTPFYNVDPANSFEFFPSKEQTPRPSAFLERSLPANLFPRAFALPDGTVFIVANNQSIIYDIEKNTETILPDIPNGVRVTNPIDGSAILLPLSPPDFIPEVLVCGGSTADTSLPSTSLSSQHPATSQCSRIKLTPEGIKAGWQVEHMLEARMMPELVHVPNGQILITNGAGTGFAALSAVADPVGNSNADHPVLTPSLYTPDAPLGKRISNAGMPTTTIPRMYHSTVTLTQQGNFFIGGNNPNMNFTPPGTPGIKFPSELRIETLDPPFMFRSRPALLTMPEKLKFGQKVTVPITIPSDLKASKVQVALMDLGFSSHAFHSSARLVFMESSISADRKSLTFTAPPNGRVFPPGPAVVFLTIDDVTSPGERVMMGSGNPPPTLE
Source text: Application of the assays of the invention to the quantification of PAM-produced glyoxylate required two alterations of the PAM assay, as well as one change to the common glycolate oxidase assay which has previously been mentioned. Without these specific alterations the assays would be rendered non-stoichiometric and produce anomalous data. First, to address the changes to the PAM assay, a new method for enzyme protection due to hydroxyl radical formation produced during catalysis was necessary as the use of catalase has previously been the method of choice. Catalase catalyzes the disproportionate reaction of H2O2 to H2O and O2, and removal of hydrogen peroxide is detrimental to the assay methods. […] Second, a reducing agent is necessary for the PAM catalysis. Ascorbate is frequently used in the art for this purpose. […] As an alternative to the foregoing, ascorbate may be used in the PAM-catalyzed reaction, but later removed (e.g., by deactivating with ascorbate oxidase) prior to assaying for glyoxylate.

[2] = molecular target: T2, peptidylglycine α-amidating monooxygenase (Rattus norvegicus, UniProt P14925); assay: PAM treatment of hippurate: benzamide by HPLC, glyoxylate by malate synthase/malate dehydrogenase/MTS/PMS system; type: biochemical; conditions: for Benzamide Produced / Glyoxylate Produced: PAM added to 2.5 mM hippurate
T2 sequence (P14925 36-976): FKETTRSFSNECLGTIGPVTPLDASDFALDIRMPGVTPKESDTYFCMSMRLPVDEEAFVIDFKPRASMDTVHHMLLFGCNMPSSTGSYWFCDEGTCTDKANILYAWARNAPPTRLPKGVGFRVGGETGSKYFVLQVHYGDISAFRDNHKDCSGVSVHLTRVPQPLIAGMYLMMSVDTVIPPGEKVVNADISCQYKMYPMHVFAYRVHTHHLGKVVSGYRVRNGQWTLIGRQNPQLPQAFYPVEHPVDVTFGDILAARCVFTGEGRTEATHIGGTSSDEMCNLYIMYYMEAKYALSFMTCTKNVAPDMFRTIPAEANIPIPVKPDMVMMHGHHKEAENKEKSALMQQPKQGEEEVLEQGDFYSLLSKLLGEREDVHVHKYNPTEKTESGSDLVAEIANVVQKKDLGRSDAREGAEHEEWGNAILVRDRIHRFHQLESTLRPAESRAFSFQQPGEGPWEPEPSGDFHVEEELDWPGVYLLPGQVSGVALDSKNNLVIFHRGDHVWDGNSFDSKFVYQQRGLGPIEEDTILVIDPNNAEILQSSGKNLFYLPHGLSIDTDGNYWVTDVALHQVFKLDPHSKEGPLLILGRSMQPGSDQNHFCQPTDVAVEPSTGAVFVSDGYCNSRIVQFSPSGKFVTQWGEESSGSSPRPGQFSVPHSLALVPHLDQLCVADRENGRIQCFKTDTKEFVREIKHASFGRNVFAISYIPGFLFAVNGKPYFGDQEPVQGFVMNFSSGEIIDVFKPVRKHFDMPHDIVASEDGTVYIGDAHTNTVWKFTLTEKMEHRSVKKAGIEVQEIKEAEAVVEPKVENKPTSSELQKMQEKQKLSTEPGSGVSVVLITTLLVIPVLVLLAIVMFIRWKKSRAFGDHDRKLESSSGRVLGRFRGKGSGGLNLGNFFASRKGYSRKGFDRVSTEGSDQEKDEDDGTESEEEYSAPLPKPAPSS
Description: Hippurate (N-benzoylglycine, C6H5-CO—NH—CH2-COO^−) is a PAM substrate that is oxidatively converted to benzamide and glyoxylate. […] At 10 min intervals over a period of 110 minutes, 45 μl aliquots may be removed and added to 10 μl of 6% (v/v) trifluoroacetic acid to terminate the reaction. Percent conversion of hippurate to benzamide may be determined at each time interval by reverse-phase HPLC.
Approximately 20 nanomoles of glyoxylate may be removed from the HPLC vials and added to a 0.9 ml solution that contain necessary components for the glyoxylate assay excluding the enzyme couple and MTS/PMS. Ascorbate may be eliminated from all samples, prior to glyoxylate determination, with 10 min incubation in the presence of 12 units of ascorbate oxidase at 37° C. Following ascorbate removal the addition of 100 μl enzyme couple and PMS/MTS may bring the assay to a final volume of 1 ml which contains 100 mM TEA-HC1 pH 7.8, 10 MM MgCl2, 400 μM acetyl-CoA, 500 μM NAD^+, 6 U/ml malate synthase, 6 U/ml malate dehydrogenase, and 12 units ascorbate oxidase. The glyoxylate concentration may be determined by measuring the absorbance increase at 490 nm after incubation at 37° C. for 1 hr. A control for this experiment was performed at each time point, and contained no hippurate.

[3] = molecular target: T1, Glyoxal oxidase; conditions: cited from earlier work
[4] = molecular target: T3, PAM (Rattus norvegicus, UniProt P14925); assay: PAM dependent conversion of N-dansyl-Tyr-Val-Gly verified by RP-HPLC; type: biochemical; conditions: 20 μM substrate, PAM 15 U/L, 1.0 mM catechol, one hour at 37° C.
T3 construct: Unigene Labs, Inc. (Fairfield, N.J.), gift
T3 sequence (P14925 36-715 isoform P14925-2 limits assumed): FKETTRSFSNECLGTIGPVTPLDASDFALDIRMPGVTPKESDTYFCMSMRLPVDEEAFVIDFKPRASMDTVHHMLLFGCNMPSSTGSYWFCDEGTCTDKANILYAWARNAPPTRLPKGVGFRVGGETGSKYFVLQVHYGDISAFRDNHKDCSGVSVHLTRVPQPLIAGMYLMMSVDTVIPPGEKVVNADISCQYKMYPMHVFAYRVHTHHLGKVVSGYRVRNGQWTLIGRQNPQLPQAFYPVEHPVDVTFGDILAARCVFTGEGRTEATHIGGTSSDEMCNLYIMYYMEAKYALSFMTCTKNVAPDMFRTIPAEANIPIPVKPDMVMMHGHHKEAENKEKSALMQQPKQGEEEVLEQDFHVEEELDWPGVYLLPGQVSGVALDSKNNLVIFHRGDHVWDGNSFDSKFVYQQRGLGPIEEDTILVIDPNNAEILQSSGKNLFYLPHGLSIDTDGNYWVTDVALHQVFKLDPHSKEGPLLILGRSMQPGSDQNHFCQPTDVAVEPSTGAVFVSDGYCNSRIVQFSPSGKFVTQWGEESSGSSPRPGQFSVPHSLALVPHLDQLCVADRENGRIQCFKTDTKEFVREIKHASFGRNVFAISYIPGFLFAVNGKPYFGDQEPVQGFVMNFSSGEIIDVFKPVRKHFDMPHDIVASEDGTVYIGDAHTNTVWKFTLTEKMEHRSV
Description: Glyoxylate production was initiated by the addition of PAM (15 U/L) to a solution containing 40 mM MES/NaOH pH 6.0, 10 U/ml HRP, 1.0 mM catechol, 0.5 μM CU(SO4), 20 μM dansyl-Tyr-Val-Gly, the reaction proceeded for one hour at 37° C. […] The complete PAM dependent conversion of 20 μM N-dansyl-Tyr-Val-Gly to N-dansyl-Tyr-Val-NH2 and glyoxylate was verified by RP-HPLC to quantify the exact concentrations of [dansyl-Tyr-Val-NH2] and [glyoxylate] (100% conversion, 20 μM N-dansyl-Tyr-Val-NH2 and glyoxylate). Aliquots of the PAM produced glyoxylate pertaining to variable concentrations (0.3, 0.7, 1.6, and 2.3, μM) of were utilized for analysis by the GLOX assay. Aliquots of glyoxylate were added to a solution of 50 mM sodium phosphate pH 6.0, 50 μM Amplex red, at HRP (1 U/ml) and a final concentration of 0.4 mg/ml GLOX. All samples were incubated for 1 hour at 37° C. for one hour.
Glyoxylate production was initiated by the addition of PAM (15 U/L) to a solution containing 40 mM MES/NaOH pH 6.0, 10 U/ml HRP, 1.0 mM catechol, 0.5 μM Cu(SO4), 20 μM dansyl-Tyr-Val-Gly, the reaction proceeded for one hour at 37° C. The PAM dependent conversion of 20 μM N-dansyl-Tyr-Val-Gly to N-dansyl-Tyr-Val-NH2 and glyoxylate was verified to be 100% by a RP-HPLC assay, to ensure a 20 μM PAM produced glyoxylate solution. […]

Oc1ccccc1O [catechol]
inhibition of the enzyme activity of glyoxal oxidase and of the spectrophotometric, fluorescent and luminescent assays [1]: not an inhibitor

O=C(O)CNC(=O)c1ccccc1 [hippurate, N-benzoylglycine]
[Glyoxylate]/[Benzamide] ([2]; Time 40): 1.2 | Benzamide Produced ([2]; Time 40): 0.58 mM | Glyoxylate Produced ([2]; Time 40): 0.69 mM | [Glyoxylate]/[Benzamide] ([2]; Time 50): 0.96 | Benzamide Produced ([2]; Time 50): 0.70 mM | Glyoxylate Produced ([2]; Time 50): 0.67 mM | [Glyoxylate]/[Benzamide] ([2]; Time 60): 0.89 | Benzamide Produced ([2]; Time 60): 0.80 mM | Glyoxylate Produced ([2]; Time 60): 0.71 mM | [Glyoxylate]/[Benzamide] ([2]; Time 70): 0.83 | Benzamide Produced ([2]; Time 70): 0.90 mM | Glyoxylate Produced ([2]; Time 70): 0.75 mM | [Glyoxylate]/[Benzamide] ([2]; Time 80): 0.79 | Benzamide Produced ([2]; Time 80): 0.98 mM | Glyoxylate Produced ([2]; Time 80): 0.77 mM | [Glyoxylate]/[Benzamide] ([2]; Time 90): 1.2 | Benzamide Produced ([2]; Time 90): 1.1 mM | Glyoxylate Produced ([2]; Time 90): 1.3 mM | [Glyoxylate]/[Benzamide] ([2]; Time 100): 1.1 | Benzamide Produced ([2]; Time 100): 1.2 mM | Glyoxylate Produced ([2]; Time 100): 1.3 mM | [Glyoxylate]/[Benzamide] ([2]; Time 110): 1.0 | Benzamide Produced ([2]; Time 110): 1.3 mM | Glyoxylate Produced ([2]; Time 110): 1.3 mM

CC(=O)C=O [Methylglyoxal]
Km [3]: 640 µM

O=CC(=O)O [glyoxylic acid]
Km [3]: 2500 µM | kcat/KM ratio, activity compared to methylglyoxal [3]: 12.4%

N-dansyl-Tyr-Val-Gly
PAM dependent conversion to N-dansyl-Tyr-Val-NH2 and glyoxylate [4]: 100%
